Data set [1] has as its system CD4+ T cells from mice immunized with OVA/Alum. Kind of data set: In vitro treatment of mouse splenocytes with 4EGI-1 and SUnSET assay. It counts as cell-based. The procedure:
Mice were immunized with 100 μg OVA/Alum and 7 days following, spleens were harvested and single-cell suspensions were generated. Splenocytes were incubated in mouse T cell media (detailed in Silencing of eIF4E in OT2 T cells by lentivirus transduction) with 0-25 μM 4EGI-1 for 4 hours at 37° C. Cells were stained with a live/dead viability marker and then for extracellular expression of CD4, CXCR5, PD-1, or ICOS or intranuclear expression of BCL6. For the SuNSET assay, cells from above were incubated 37° C. with 10 μg/mL puromycin for 10 minutes. Control samples were incubated with puromycin and 100 μg/mL cycloheximide. Cells were incubated with a live/dead viability marker and extracellular stain prior to fixation and permeabilization (BD Biosciences Fixation/Permeabilization Solution) and intracellular staining with anti-puromycin followed by anti-mouse IgG2a antibody conjugated to Alexa Fluor 488.

Data set [2] has as its system EAE mice. In words: Active EAE (MOG33-55/CFA), 4EGI-1 after onset of clinical symptoms. It counts as in vivo, mouse. The procedure: Ten-week old female mice purchased from Jackson Laboratory were subcutaneously injected at two sites with 100 μL […] emulsified in CFA (Hooke Labs) per flank. On the same day, 6 hours later, and on day 2, mice were injected with 100 ng of pertussis toxin in 200 μL i.p. Mice were monitored daily and scored on a scale of 0-5 where 0, no disease; 1, tail paralysis; 2; hind limb paresis; 3, complete hind limb paralysis; 4, front limb weakness and hind limb paralysis, and 5, moribund state. When stated, mice were either administered 25 mg/kg 4EGI-1 or vehicle i.p. from d 0 to 21 following EAE induction or 75 mg/kg 4EGI-1 or vehicle i.p. from day 12 to 21 following EAE induction and randomization. LFB-H images imported into FIJI underwent color deconvolution to isolate myelin staining. A binary image was generated and % myelination of the spinal cord was calculated. Spinal cords from mice not subjected to EAE were set to 100% and all other samples from the same group were normalized. H&E images imported into FIJI underwent color deconvolution to isolate hematoxylin staining. A binary image was generated and % infiltration of the spinal cord of was calculated. Five-micron sections of paraffin embedded tissue were stained with Akoya Biosciences® Opal™ multiplex automation kit reagents unless stated otherwise. Automated staining was performed on Leica BondRX® autostainer. The protocol was performed according to manufacturers' instructions with primary antibodies to CD19 (Cell Signaling Technology, cat #90176) and CD4 (Cell Signaling Technology, cat #25229). Briefly, all slides underwent sequential epitope retrieval with Leica Biosystems epitope retrieval 2 solution (EDTA based, pH9, Cat. AR9640), primary and secondary antibody incubation and tyramide signal amplification (TSA) with Opal® fluorophores Op690 and Op520. Primary and secondary antibodies were removed during epitope retrieval steps while fluorophores remain covalently attached to the epitope. Semi-automated image acquisition was performed on a Vectra® Polaris multispectral imaging system. After whole slide scanning at 10× the tissue was manually outlined to select fields for multispectral imaging at 20×. Phenochart® software from Akoya Biosciences was used for spectral unmixing of the whole slide scans. Scans were imported into QuPath and representative images were exported into FIJI.

For data set [3], the system named is human lymph node CD4+ CD45RO+ T cells. In words: In vitro treatment of human lymph node cells with 4EGI-1. It counts as cell-based. The settings on record: 4EGI-1 overnight, three patients. The method, then:
Discarded, deidentified, reactive, but non-malignant human lymph node single cell suspensions were obtained. Presence of TFH cells was confirmed by identification of CD4^+ CD45RO^+ T cells that are PD1^+ CXCR5^+ BCL6^+ and ICOS^+. Lymph node suspensions were incubated overnight at 37° C. in X-VIVO media (Lonza) containing 5% human AB serum (Sigma) and Glutamax with 0-25 μM 4EGI-1. Cells were then stained with a live/dead viability marker and then for extracellular expression of human CD4, CD45RO, CXCR5, PD-1, or ICOS or intranuclear expression of BCL6. Expression of markers was normalized to % of control (0 μM 4EGI-1) to allow for combined statistical analysis of all 3 patients. Antibody clones and dilutions used to identify these populations are detailed in Table 2.

Where [4] appears, read: 4EGI-1 up to 25 μM, 4 hours, mouse CD4+ T cells.
[5] abbreviates: 10-25 μM 4EGI-1, 4 hours, mouse CD4+ lymphocytes in culture.

Each structure is given as a SMILES string.

For `O=C(O)C(Cc1ccccc1[N+](=O)[O-])=NNc1nc(-c2ccc(Cl)c(Cl)c2)cs1` (mixture of isomers) [4EGI-1], in data set [1] (setting [4]), the “levels of CXCR5 protein” value was “unchanged”, the “levels of ICOS protein” value is on record as “unchanged”, the “levels of PD-1 protein” value is given as “unchanged” and the “reduction of BCL6 protein levels” value is reported as approximately 3 fold. In data set [1] (setting [5]), the cell viability entry is “without reducing” and the “reduction of protein synthesis (SUnSET)” value is given as 3-4 fold. In data set [2] (75 mg/kg from day 12), the “day by which mice entered remission” value was not above 15 days; the “decrease of CD4+ T cells producing IFN-γ in spinal cord and brain” value is listed as 4 fold; the “decrease of CD4+ T cells producing IL-17A in spinal cord and brain” value is 4 fold; the “decreased infiltration and retention of CD4+ T cells in brain” value was determined as 4 fold. In addition, the “time to marked improvement in clinical symptoms after 4EGI-1 administration” value in data set [2] (75 mg/kg from day 12) is 2 to 3 days. Further, in data set [2] (75 mg/kg from day 12, H&E), the “spinal cord immune cell infiltration” value was “marked reduction”. The “weight compared to vehicle-treated animals” value in data set [2] (75 mg/kg from day 12, day 18) is “increased”. Also, in data set [2] (75 mg/kg from day 12, day 21), the “decreased infiltration and retention of CD4+ T cells in spinal cord” value is on record as 4 fold; the “decreased levels of splenic TFH cells” value is listed as 3 fold; the “demyelination compared to vehicle-treated mice” value is reported as “reduced”. The “myelination regained, relative to normal levels” value in data set [2] (75 mg/kg from day 12, day 21, Luxol fast blue) is approximately 90%. For the same compound, in data set [2] (75 mg/kg from day 12, immunofluorescence), the “ELFs / CD4+ T cell clusters in spinal cord” value is “smaller clusters”. The progression of disease entry in data set [2] (75 mg/kg from day 12, vs vehicle-treated mice) is listed as “inhibited”. For the same compound, the “levels of BCL6 protein” value in data set [3] (0-30 μM / 0-25 μM) was “rapidly reduced”. In addition, the cell viability entry in data set [3] was “no effect”.
